In patent publication US20230001005A1, “TREATMENT OF CANCERS WITH ANTIBODY DRUG CONJUGATES (ADC) THAT BIND TO 191P4D12 PROTEINS” (AGENSYS, INC., priority 2019, published 2023):
Starred links: 1 amine or outer side, 2 acyl side, 3 side chain; linkers in the order of their positions; H or OH if unused. Non-standard residues stand in square brackets, D forms with d. Residues, ends and D or L forms follow the SMILES beside them. *: point of attachment. Dolaproine = CO[C@@H]([C@@H]1CCCN1)[C@@H](C)C(=O)O; Hexanoyl(6-maleimido) = O=C1C=CC(=O)N1CCCCCC(=O)*; Dil = CC[C@H](C)[C@H](NC)[C@@H](CC(=O)O)OC; PABC = O=C(OCc1ccc(N[*:1])cc1)[*:2]; X1 = C[C@@H](N*)[C@@H](O)c1ccccc1; Cit = NC(=O)NCCC[C@H](N)C(=O)O; NMeV = CN[C@H](C(=O)O)C(C)C

How the values were obtained:
[1] = system: cell line engineered to express human 191P4D12; assay: In vitro cell survival, engineered cell line; type: cell-based
[2] = system: acute myeloid leukemia (AML) at relapse; settings: administered alone; cited from earlier work
[3] = system: bacteria; assay: Reverse mutation test in bacteria (Ames test)
[4] = Absorbance / phototoxicity assessment (ICH S10)
[5] = system: squamous NSCLC, Gastric (GEJ) cancer, HNSCC, NSCLC-adenocarcinoma, head & neck cancer-squamous, and breast cancer; settings: MMAE, Vinca, or both MMAE and Vinca; Vinca used if data for MMAE was not available; cited from earlier work
[6] = system: rats; assay: Micronucleus test in rats; type: in vivo
[7] = system: L5178Y TK+/−mouse lymphoma; assay: L5178Y TK+/− mouse lymphoma mutation assay; type: cell-based
[8] = system: monkeys; assay: Toxicity studies in monkeys; settings: sexually immature male monkeys, doses up to 6 mg/kg
[9] = target: T1, 191P4D12 (Homo sapiens, UniProt Q96NY8); assay: Comparability study: binding affinity to 191P4D12
T1 sequence (Q96NY8 32-510): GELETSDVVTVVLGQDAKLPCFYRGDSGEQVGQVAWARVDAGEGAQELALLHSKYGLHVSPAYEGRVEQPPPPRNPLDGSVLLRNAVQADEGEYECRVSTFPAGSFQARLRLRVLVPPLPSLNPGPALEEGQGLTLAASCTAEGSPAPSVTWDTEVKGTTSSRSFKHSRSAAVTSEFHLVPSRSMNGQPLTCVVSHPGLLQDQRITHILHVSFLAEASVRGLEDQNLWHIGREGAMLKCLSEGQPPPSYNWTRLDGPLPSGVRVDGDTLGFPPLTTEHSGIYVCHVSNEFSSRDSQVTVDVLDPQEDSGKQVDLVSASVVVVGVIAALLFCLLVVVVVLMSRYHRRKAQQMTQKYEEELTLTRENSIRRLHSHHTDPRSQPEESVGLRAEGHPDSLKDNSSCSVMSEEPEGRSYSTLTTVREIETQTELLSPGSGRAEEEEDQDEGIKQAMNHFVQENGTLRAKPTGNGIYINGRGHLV

[10] = system: cynomolgus monkeys; assay: Immunogenicity in cynomolgus monkeys; type: in vivo
[11] = system: metastatic urothelial cancer; assay: EV-101 phase 1 dose escalation/expansion study; type: in vivo, human
From the text: EV-101 is a phase 1 dose escalation/expansion study that enrolled patients with 191P4D12-expressing solid tumors, (eg, metastatic urothelial cancer [UC]), who progressed on ≥1 prior chemotherapy regimen, including a cohort of patients with metastatic UC who received prior anti-PD-(L)1 therapy.
Enfortumab vedotin provided durable responses and meaningful survival results in patients after anti-PD-(L)-1 therapy in a population with a high unmet medical need. The confirmed ORR was 45% by a central review in patients who were treated with enfortumab vedotin 1.25 mg/kg. The median overall survival (OS) of 12.3 months is encouraging given the historical median OS is ≤10.3 months (Bellmunt J et al, N Eng J Med. 2017; 376(11):1015-1026).

[12] = system: patient-derived TNBC cell xenograft; assay: Patient-derived TNBC cell xenograft model; type: in vivo
[13] = system: rats; assay: Toxicity studies in rats; type: in vivo
[14] = system: patients who progressed after platinum chemotherapy and a PD-1/L1 inhibitor; assay: EV-201 pivotal phase 2 study; type: in vivo, human
Method: In a pivotal phase 2 study (EV-201), patients must have had prior treatment with platinum-containing chemotherapy or be platinum-naïve and ineligible for cisplatin treatment. […] The confirmed ORR was 44% in patients treated with enfortumab vedotin 1.25 mg/kg. The median OS was 11.7 months and the median duration of response was 7.6 months.

[15] = Comparability study: in vitro cytotoxicity; type: cell-based
[16] = system: cynomolgus monkeys
[17] = Comparability study: in vivo antitumor activity
[18] = system: lung cancer xenografts; assay: Formation of lung cancer xenografts (subcutaneous mouse xenograft model); set-up: species or system SCID mice; settings: in vivo
Method: (§1) Subcutaneous (s.c.) tumors are generated by injection of 5×10^4- 10^6 cancer cells mixed at a 1:1 dilution with Matrigel (Collaborative Research) in the right flank of male SCID mice. To test ADC efficacy on tumor formation, ADC injections are started on the same day as tumor-cell injections. As a control, mice are injected with either purified human IgG or PBS; or a purified MAb that recognizes an irrelevant antigen not expressed in human cells. In preliminary studies, no difference is found between control IgG or PBS on tumor growth. Tumor sizes are determined by caliper measurements, and the tumor volume is calculated as width^2×Length/2, wherein width is the smallest dimension and length is the largest dimension. Mice with subcutaneous tumors greater than 1.5 cm in diameter are sacrificed.

[19] = system: human lung cancer xenograft AG-L4; assay: Efficacy in subcutaneous established human lung cancer xenograft AG-L4 in SCID mice; type: in vivo; settings: 10 mg/kg every seven days for two doses, intravenous bolus; compared to control ADC
Method: In another experiment, patient-derived lung cancer xenograft AG-L4 was maintained by serial passages in SCID mice. Stock tumors were harvested sterilely and minced into 1 mm^3 pieces. Six (6) pieces were implanted into the flank of individual SCID mice. Tumors were allowed to grow untreated until they reached an approximate volume of 200 mm^3. The Ha22-2(2,4)6.1vcMMAE and the control ADC were dosed at 10 mg/kg every seven (7) days for two doses by intravenous bolus injection. The amount of ADC administered was based on the individual body weight of each animal obtained immediately prior to dosing. Tumor growth was monitored using caliper measurements every 3 to 4 days. Tumor volume was calculated as Width^2×Length/2, where width is the smallest dimension and length is the largest dimension.

[20] = system: xenografts of human lung adenocarcinoma cell line; assay: Tumor xenograft model, human lung adenocarcinoma cell line; type: in vivo
[21] = system: human breast cancer xenograft BT-483; assay: Efficacy in subcutaneous established human breast cancer xenograft BT-483 in SCID mice; type: in vivo; settings: 5 mg/kg every four days for four doses, intravenous bolus; compared to control ADC
Method: In this experiment, human breast cancer BT-483 cells were used to generate stock xenografts, which were maintained by serial passages in SCID mice. Stock tumors were harvested sterilely and minced into 1 mm^3 pieces. Six (6) pieces were implanted into the flank of individual SCID mice. Tumors were allowed to grow untreated until they reached an approximate volume of 100 mm^3. The Ha22-2(2,4)6.1vcMMAE and the control ADC were dosed at 5 mg/kg every four (4) days for four (4) doses by intravenous bolus injection. The amount of ADC administered was based on the individual body weight of each animal obtained immediately prior to dosing. Tumor growth was monitored using caliper measurements every 3 to 4 days. Tumor volume was calculated as Width^2×Length/2, where width is the smallest dimension and length is the largest dimension.

[22] = system: xenograft of a patient-derived bladder cancer; assay: Tumor xenograft model, patient-derived bladder cancer; type: in vivo; settings: in a dose-dependent manner
[23] = system: xenograft of human HR+breast cancer cell line; assay: Tumor xenograft model, human HR+ breast cancer cell line; type: in vivo; settings: 5 mg/kg every 4 days for 4 doses
[24] = system: breast cancer xenografts; assay: Formation of breast cancer xenografts (subcutaneous mouse xenograft model); set-up: species or system SCID mice; settings: in vivo
Method: as §1

[25] = system: male and female rats; assay: Immunogenicity in rats; type: in vivo
[26] = system: patient-derived lung adenocarcinoma; assay: Tumor xenograft model, patient-derived lung adenocarcinoma; type: in vivo

In the case of AGS-22M6, the “cell survival / cell growth” value [1] is reported as “did not affect cell growth”.
In the case of “CT-011: anti-PD-1 antibody, a humanized antibody”, the response [2] is listed as “failed to show response”.
For `CC[C@H](C)[C@@H]([C@@H](CC(=O)N1CCC[C@H]1[C@H](OC)[C@@H](C)C(=O)N[C@H](C)[C@@H](O)c1ccccc1)OC)N(C)C(=O)[C@@H](NC(=O)[C@@H](NC)C(C)C)C(C)C` [MMAE, monomethyl auristatin E] (H-[NMeV]V[Dil][Dolaproine]-X1), the genotoxic potential [3] is given as “no discernible genotoxic potential”, the “absorbance in the range of 290 nm to 700 nm” value [4] is given as “no absorbance” and the “sensitivity of the cancers to cytotoxicity” value [5] is given as “sensitive to cytotoxicity”. For the same compound, the chromosomal aberrations [6] was “induce chromosomal aberrations” and the genotoxic potential [7] was “no discernible genotoxic potential”.
In the case of `CC[C@H](C)[C@@H]([C@@H](CC(=O)N1CCC[C@H]1[C@H](OC)[C@@H](C)C(=O)N[C@H](C)[C@@H](O)c1ccccc1)OC)N(C)C(=O)[C@@H](NC(=O)[C@H](C(C)C)N(C)C(=O)OCc1ccc(NC(=O)[C@H](CCCNC(N)=O)NC(=O)[C@@H](NC(=O)CCCCCN2C(=O)C=CC2=O)C(C)C)cc1)C(C)C` [vc-MMAE, valine-citrulline linker-MMAE] ({Hexanoyl(6-maleimido)}-V[Cit][PABC][NMeV]V[Dil][Dolaproine]-X1), the “absorbance against the criteria for phototoxicity testing as defined in the ICH S10 guidance” value [4] is reported as “did not meet the criteria for phototoxicity testing”.
With enfortumab vedotin the “photoreactivity / direct phototoxicity” value ([4]; concluded from absorbance of MMAE and vc-MMAE) was “not considered to be sufficiently photoreactive”, the testicular toxicity [8] was “not observed” and the “comparability of binding affinity to 191P4D12, enfortumab vedotin versus AGS-22M6E” value [9] was “confirmed”. The “immunogenicity, AGS-22M6E versus enfortumab vedotin” value [10] was “comparable”, the “median overall survival (OS)” value [11] was 12.3 months and the “confirmed ORR” value ([11]; by a central review, 1.25 mg/kg, metastatic urothelial cancer after anti-PD-(L)-1 therapy) was 45%. For the same compound, the “pharmacological antitumor activity, enfortumab vedotin versus AGS-22M6E” value [12] was “comparable”, the “dose at which testicular toxicity (seminiferous tubule degeneration and hypospermia in the epididymis) was noted” value [13] was no less than 2.0 mg/kg and the “reversibility of testicular findings” value ([13]; end of a 24-week recovery period) was “partially reversed”. The “median OS” value [14] was 11.7 months, the “median duration of response” value [14] was 7.6 months and the “confirmed ORR” value ([14]; 1.25 mg/kg) was 44%. The “comparability of in vitro cytotoxicity, enfortumab vedotin versus AGS-22M6E” value [15] was “confirmed”, the “safety profile, AGS-22M6E versus enfortumab vedotin” value [16] was “comparable” and the “comparability of in vivo antitumor activity, enfortumab vedotin versus AGS-22M6E” value [17] was “confirmed”.
With “AGS-22M6E: ADC derived from a murine hybridoma cell line; antibody Ha22-2(2,4)6.1 conjugated to MMAE via vc linker” the “formation of lung cancer xenografts” value [18] was “inhibits formation”, the “growth of AG-L4 lung cancer xenografts (tumor volume)” value [19] was “significantly inhibited the growth” and the tumor growth [20] was “significantly inhibited tumor growth”. For the same compound, the “growth of BT-483 breast tumor xenografts (tumor volume)” value [21] was “significantly inhibited the growth”, the tumor growth [22] was “significantly inhibited the tumor growth” and the tumor growth [23] was “significantly inhibited the tumor growth”. For the same compound, the immunogenicity [10] was “moderately immunogenic”, the “immunogenicity, AGS-22M6E versus enfortumab vedotin” value [10] was “comparable” and the “pharmacological antitumor activity, enfortumab vedotin versus AGS-22M6E” value [12] was “comparable”. For the same compound, the “formation of breast cancer xenografts” value [24] was “inhibits formation”, the immunogenicity [25] was “moderately immunogenic” and the tumor growth [26] was “significantly inhibited tumor growth”. The “cell survival / cell growth” value [1] was “inhibited cell survival”, the “pharmacokinetics, AGS-22M6E versus enfortumab vedotin” value [16] was “comparable” and the “safety profile, AGS-22M6E versus enfortumab vedotin” value [16] was “comparable”.
